pKi: −log10 of the molar value. Where only a bound is given, the exact number is not on record here.

The values that follow come from patent US8501446B2 (Vertex Pharmaceuticals Incorporated, priority 2004, dated 2013).

Holding throughout (assay type): biochemical
Assay [1] deals with T1, ROCK I (AA 6-553) (Homo sapiens, UniProt Q13464).
T1 construct: ROCK I (AA 6-553)
The assay can be described thus: ROCK inhibition assay, standard coupled enzyme system ("Enzyme"). The following applies: enzyme-linked assay. Put shortly:
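ROCK I (AA 6-553) at 45 nM and 30 °C with 45 μM ATP and 200 μM peptide, in 100 mM HEPES pH 7.5, 10 mM MgCl2, 25 mM NaCl, 2 mM DTT, 1.5% DMSO. ADP output read by a PK/LDH coupled system: 2.5 mM PEP, 350 μM NADH, 30 μg/ml PK, 10 μg/ml LDH.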

The target in assay [2] is T2, full length Aurora-A (AA 1-403) (Homo sapiens, UniProt O14965).
T2 construct: full length Aurora-A (AA 1-403)
T2 sequence (O14965 1-403): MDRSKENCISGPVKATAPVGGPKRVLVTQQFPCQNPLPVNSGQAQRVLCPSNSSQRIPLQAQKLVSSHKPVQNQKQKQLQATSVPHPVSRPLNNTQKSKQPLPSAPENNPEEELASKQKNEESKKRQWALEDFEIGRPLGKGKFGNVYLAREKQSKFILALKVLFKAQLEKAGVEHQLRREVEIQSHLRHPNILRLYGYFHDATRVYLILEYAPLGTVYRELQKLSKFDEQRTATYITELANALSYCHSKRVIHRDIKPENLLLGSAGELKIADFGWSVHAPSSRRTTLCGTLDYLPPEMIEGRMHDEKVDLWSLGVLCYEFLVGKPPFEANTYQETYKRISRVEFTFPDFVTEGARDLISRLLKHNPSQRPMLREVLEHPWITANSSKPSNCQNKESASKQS
Description: Aurora-A inhibition assay, standard coupled enzyme system. The conditions noted are these: average Ki if more than one value determined.

Assay [3] addresses Aurora-B (Homo sapiens, UniProt Q96GD4). Description: Aurora-B inhibition assay, radioactive assay. The conditions noted are these: average Ki if more than one value determined. The method, then: Compounds were screened for their ability to inhibit JAK3 using a standard radioactive enzyme assay. 1.5 μL/well of a DMSO stock containing serial dilutions of a compound of the present invention (concentrations ranging from 667 μM to 46 nM) was placed in a 96 well polycarbonate plate. 50 μL per well of kinase buffer (100 mM HEPES (pH 7.4), 10 mM MgCl2, 25 mM NaCl, 1 mM DTT, and 0.01% bovine serum albumin (BSA)) containing 2 μM poly(Glu)4Tyr and 10 μM ATP was also added to the plate. To initiate the reaction, 50 μL kinase buffer containing 2 nM JAK3 enzyme was added. Final ATP concentration was 5 μM [γ-^33P] ATP (200 μCi ^33P ATP/μmol ATP (Perkin Elmer, Cambridge, Mass.). After 20 minutes at room temperature (25° C.), the reaction was stopped by adding 50 μL 20% trichloroacetic acid (TCA)/0.4 mM ATP to each well. The entire content of each well was then transferred to a 96 well glass fiber filter plate using a TomTek Cell Harvester. After washing, 60 μL scintillation fluid was added and ^33P incorporation detected using a Perkin Elmer TopCount. After removing mean background values for all of the data points the data was fit using Prism software to obtain a Ki(app). Inhibition of JAK2 was measured as above except that final poly(Glu)4Tyr concentration was 15 μM and final ATP concentration was 12 μM.
Some compounds were screened for their ability to inhibit ROCK using a standard radioactive enzyme assay. Assays were carried out in a solution containing 100 mM HEPES (pH 7.5), 10 mM MgCl2, 25 mM NaCl, 2 mM DTT, and 1.5% DMSO. Final substrate concentrations in the assay were 13 μM [γ-^33P] ATP (25 mCi ^33P ATP/mmol ATP, Perkin Elmer, Cambridge, Mass./Sigma Chemicals, St Louis, Mo.) and 27 μM Myelin Basic Protein (MBP). Final enzyme concentration in the assay was 5 nM ROCK. Assays were carried out at room temperature. 1.5 μl of DMSO stock containing serial dilutions of the compound of the present invention (concentrations ranging from 10 μM to 2.6 nM) was placed in a 96 well plate. 50 μl of Solution 1 (100 mM HEPES (pH 7.5), 10 mM MgCl2, […]) was added to the plate. The reaction was initiated by addition of 50 μl of Solution 2 (100 mM HEPES (pH 7.5), 10 mM MgCl2, 4 mM DTT, […] and 10 nM ROCK). After 2 hours the reaction was quenched with 50 μL of 30% trichloroacetic acid (TCA, Fisher) containing 9 mM ATP. Transfer of 140 μL of the quenched reaction to a glass fiber filter plate (Corning, Cat. No. 3511) was followed by washing 3 times with 5% TCA. 50 μL of Optima Gold scintillation fluid (Perkin Elmer) was added and the plates were counted on a Top Count (Perkin Elmer). After removing mean background values for all of the data points the data was fit using Prism software to obtain a Ki(app).
An assay stock buffer solution was prepared containing all of the reagents listed above with the exception of ATP and the test compound of interest. The assay stock buffer solution (60 μl) was incubated in a 96 well plate with 2 μl of the test compound of interest at final concentrations spanning 0.002 μM to 30 μM at 30° C. for 10 min. Typically, a 12 point titration was conducted by preparing serial dilutions (from 1 mM compound stocks) with DMSO of the test compounds in daughter plates. The reaction was initiated by the addition of 5 μl of ATP (final concentration 200 μM). Rates of reaction were obtained using a Molecular Devices Spectramax plate reader (Sunnyvale, Calif.) over 10 min at 30° C. The Ki values were determined from the rate data as a function of inhibitor concentration using computerized nonlinear regression (Prism 3.0, Graphpad Software, San Diego, Calif.). Aurora-C activity was screened in a similar manner using Aurora-C protein. Aurora-B activity was screened using a radioactive assay, such as described in Examples 1 and 2, but using Aurora-B protein.

Assay [4] has as its target T3, JAK3 (Homo sapiens, UniProt P52333).
T3 sequence (P52333 1-1124): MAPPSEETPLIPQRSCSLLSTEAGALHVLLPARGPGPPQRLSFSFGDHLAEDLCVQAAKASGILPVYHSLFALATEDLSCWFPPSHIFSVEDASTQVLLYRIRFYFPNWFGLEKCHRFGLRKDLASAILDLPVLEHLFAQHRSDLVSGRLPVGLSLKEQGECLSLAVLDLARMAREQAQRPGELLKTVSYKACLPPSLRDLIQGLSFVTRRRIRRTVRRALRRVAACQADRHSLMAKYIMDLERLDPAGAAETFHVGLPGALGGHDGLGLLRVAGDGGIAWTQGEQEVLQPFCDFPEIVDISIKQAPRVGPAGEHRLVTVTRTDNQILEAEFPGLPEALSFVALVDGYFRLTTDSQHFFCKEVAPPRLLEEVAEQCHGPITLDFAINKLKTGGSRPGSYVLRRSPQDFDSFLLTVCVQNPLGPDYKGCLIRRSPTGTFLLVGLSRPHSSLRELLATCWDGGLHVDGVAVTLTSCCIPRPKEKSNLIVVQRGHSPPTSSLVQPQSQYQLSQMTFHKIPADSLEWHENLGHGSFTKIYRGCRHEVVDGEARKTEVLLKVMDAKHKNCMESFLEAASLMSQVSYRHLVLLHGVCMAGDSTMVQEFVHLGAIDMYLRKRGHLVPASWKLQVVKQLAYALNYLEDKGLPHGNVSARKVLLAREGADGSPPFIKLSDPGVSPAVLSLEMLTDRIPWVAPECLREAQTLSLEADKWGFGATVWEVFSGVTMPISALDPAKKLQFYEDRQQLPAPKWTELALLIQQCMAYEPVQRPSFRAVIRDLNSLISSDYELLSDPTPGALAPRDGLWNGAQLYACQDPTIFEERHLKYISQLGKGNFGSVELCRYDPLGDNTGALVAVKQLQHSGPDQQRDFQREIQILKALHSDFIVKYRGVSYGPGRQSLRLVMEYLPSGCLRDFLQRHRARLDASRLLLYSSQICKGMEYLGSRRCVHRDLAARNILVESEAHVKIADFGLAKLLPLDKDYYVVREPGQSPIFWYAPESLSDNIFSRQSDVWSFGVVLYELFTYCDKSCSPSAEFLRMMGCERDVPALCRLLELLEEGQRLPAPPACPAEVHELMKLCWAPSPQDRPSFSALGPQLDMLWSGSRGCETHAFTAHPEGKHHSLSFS
The assay can be described thus: JAK3 inhibition assay (standard radioactive enzyme assay). The following applies: average Ki if more than one value determined.

Assay [5] has as its target JAK2 (Homo sapiens, UniProt O60674). Description: JAK2 inhibition assay (radioactive enzyme assay, as for JAK3). The following applies: average Ki if more than one value determined. Put shortly: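 Both kinases: poly(Glu)4Tyr substrate in 100 mM HEPES pH 7.4, 10 mM MgCl2, 1 mM DTT. Run 20 min at 25° C, TCA stop, filter-bound ³³P counted, Ki(app) fitted after background subtraction. JAK3: final [γ-³³P]ATP 5 μM, enzyme added as 2 nM solution. JAK2: final poly(Glu)4Tyr 15 μM, final ATP 12 μM.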

T1 sequence (Q13464 6-553, species assumed): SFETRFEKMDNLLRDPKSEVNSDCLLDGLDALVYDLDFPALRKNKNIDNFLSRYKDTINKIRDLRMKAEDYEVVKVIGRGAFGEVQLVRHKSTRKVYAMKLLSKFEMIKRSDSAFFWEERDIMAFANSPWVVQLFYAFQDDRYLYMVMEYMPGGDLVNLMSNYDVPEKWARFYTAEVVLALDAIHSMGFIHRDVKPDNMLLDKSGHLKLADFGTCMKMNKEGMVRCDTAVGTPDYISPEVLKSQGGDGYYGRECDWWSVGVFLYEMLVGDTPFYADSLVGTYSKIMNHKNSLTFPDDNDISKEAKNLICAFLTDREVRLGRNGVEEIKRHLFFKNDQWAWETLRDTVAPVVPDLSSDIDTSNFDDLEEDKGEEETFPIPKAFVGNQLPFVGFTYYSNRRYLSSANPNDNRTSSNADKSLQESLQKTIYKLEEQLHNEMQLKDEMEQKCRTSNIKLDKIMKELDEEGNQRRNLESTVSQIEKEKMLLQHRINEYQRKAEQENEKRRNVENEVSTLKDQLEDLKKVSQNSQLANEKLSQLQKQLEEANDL
Aurora-B, sequence (Q96GD4 whole entry): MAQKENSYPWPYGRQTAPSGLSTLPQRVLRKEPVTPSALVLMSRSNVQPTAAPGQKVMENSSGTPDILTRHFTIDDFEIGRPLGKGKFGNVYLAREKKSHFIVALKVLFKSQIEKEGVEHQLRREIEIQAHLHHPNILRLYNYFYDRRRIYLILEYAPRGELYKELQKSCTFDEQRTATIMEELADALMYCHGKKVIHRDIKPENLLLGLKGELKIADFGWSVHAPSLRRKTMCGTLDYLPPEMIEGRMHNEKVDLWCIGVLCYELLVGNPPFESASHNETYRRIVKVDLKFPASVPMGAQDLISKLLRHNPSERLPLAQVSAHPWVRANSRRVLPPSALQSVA
JAK2, sequence (O60674 whole entry, species assumed): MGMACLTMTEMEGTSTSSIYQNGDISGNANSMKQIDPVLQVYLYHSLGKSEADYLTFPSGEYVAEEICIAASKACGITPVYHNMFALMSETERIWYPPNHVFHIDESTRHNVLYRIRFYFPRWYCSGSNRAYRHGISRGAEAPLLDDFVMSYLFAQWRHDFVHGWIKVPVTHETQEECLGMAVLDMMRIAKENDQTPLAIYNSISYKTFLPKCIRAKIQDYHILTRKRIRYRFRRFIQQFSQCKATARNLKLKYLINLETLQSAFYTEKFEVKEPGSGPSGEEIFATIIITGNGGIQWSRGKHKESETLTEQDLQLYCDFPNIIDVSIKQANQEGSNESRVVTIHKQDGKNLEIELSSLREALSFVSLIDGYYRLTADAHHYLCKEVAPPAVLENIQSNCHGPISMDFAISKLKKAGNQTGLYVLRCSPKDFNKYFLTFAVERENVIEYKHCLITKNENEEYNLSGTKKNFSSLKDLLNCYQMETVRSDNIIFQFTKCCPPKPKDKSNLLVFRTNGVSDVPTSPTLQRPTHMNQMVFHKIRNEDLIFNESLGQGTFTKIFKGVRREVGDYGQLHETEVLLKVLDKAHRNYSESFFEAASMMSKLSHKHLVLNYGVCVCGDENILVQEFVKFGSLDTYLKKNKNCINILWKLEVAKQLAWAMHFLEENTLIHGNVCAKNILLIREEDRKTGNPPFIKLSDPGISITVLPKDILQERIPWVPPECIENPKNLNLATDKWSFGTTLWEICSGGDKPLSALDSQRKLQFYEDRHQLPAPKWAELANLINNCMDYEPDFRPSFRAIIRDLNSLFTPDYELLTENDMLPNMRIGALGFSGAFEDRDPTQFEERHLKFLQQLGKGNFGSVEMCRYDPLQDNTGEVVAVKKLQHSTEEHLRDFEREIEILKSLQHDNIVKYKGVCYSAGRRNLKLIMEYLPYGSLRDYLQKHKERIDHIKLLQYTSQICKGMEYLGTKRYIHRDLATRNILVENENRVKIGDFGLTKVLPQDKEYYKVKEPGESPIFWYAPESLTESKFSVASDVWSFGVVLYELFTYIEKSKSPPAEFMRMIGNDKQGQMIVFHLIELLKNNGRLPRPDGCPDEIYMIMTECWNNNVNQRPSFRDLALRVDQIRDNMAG

In the case of `C[C@H](Nc1nc(-c2c[nH]c3ncc(Cl)cc23)ncc1[N+](=O)[O-])c1ccc(F)cc1` [Compound 422], the pKi in assay [1] is 5.30 to 6.30; in assay [2], over 6.30; in assay [3] it was over 6.30.

For the compound `CCCC[C@H](C)NC(=O)[C@H](C)Nc1nc(-c2c[nH]c3ncc(Cl)cc23)ncc1F` [Compound 463], the negative-log Ki (pKi) is over 6.30 in assay [2] and 5.30 to 6.30 in assay [3].

With `C[C@H](Nc1nc(-c2c[nH]c3ncc(Cl)cc23)ncc1F)C(=O)NCCc1nc2ccccc2[nH]1` [Compound 459], the pKi in assay [2] and in assay [3] was 5.30 to 6.30 in each case.

With `COC(=O)COc1cccc([C@H](C)Nc2nc(-c3c[nH]c4ncc(Cl)cc34)ncc2F)c1` [Compound 335], the negative logarithm of the Ki (pKi) in assay [2] and in assay [3] was over 6.30 in each case.

Turning to `C#CCNc1nc(-c2c[nH]c3ncc(Cl)cc23)ncc1F` [Compound 382], the pKi was over 6.30 in assay [2] and 5.30 to 6.30 in assay [3].

As to `C[C@H](Nc1nc(-c2c[nH]c3ncc(Cl)cc23)ncc1F)C(=O)NCCCN1CCCC1=O` [Compound 460], the pKi in assay [2] and in assay [3] was 5.30 to 6.30 throughout.

In the case of `C[C@H](Nc1nc(-c2c[nH]c3ncc(Cl)cc23)ncc1F)C(=O)NCCOc1ccccc1` [Compound 457], the pKi in assay [2] and in assay [3] was 5.30 to 6.30 each time.

Take `C[C@H](Nc1cc(NCCN(C)C)nc(-c2c[nH]c3ncc(Cl)cc23)n1)C(=O)NCC(F)(F)F` [Compound 419]: the pKi in assay [2] and in assay [3] was 5.30 to 6.30 in each case.

With `C[C@H](Nc1nc(-c2c[nH]c3ncc(Cl)cc23)ncc1F)C(=O)NCCSCc1c(Cl)cccc1Cl` [Compound 462], the negative-log Ki (pKi) in assay [2] and in assay [3] was 5.30 to 6.30 each time.

For the compound `CC(=O)N1[C@H](C)CN(c2cccc(-c3c[nH]c4ncc(OC5CCOC5)cc34)n2)C[C@@H]1C` (stereo partly shown) [Compound 96], the pKi in assay [4] is over 6.30; in assay [5], over 6.30; in assay [1], 5.30 to 6.30; in assay [2], 5.30 to 6.30.

For the compound `CC(=O)Nc1cnc2[nH]cc(-c3cccc(N4C[C@@H](C)N(C(C)=O)[C@@H](C)C4)n3)c2c1` [Compound 113], the pKi in assay [4] is over 6.30; in assay [5], over 6.30; in assay [1] it was 5.30 to 6.30; in assay [2] it was 5.30 to 6.30.

In the case of `NC(=O)c1ccc(-c2c[nH]c3ncc(Cl)cc23)nc1NCc1ccccc1` [Compound 46], the pKi is over 6.30 in assay [4], over 6.30 in assay [5], 5.30 to 6.30 in assay [1] and over 6.30 in assay [2].

For the compound `O=C(O)c1ccc(NCc2ccccc2)nc1-c1c[nH]c2ncc(Cl)cc12` [Compound 44], the pKi in assay [4] was 5.30 to 6.30; in assay [5] it was 5.30 to 6.30; in assay [1], 5.30 to 6.30; in assay [2], over 6.30.

With `N#Cc1cc(-c2c[nH]c3ncc(Cl)cc23)nc(N2CCCNCC2)c1` [Compound 151], the pKi in assay [4], in assay [5], in assay [1] and in assay [2] was over 6.30 throughout.

For `CC(=O)N1[C@H](C)CN(c2nc(-c3c[nH]c4ncc(Cl)cc34)cc(C)c2C#N)C[C@@H]1C` [Compound 79], the pKi is over 6.30 in assay [4], over 6.30 in assay [5], 5.30 to 6.30 in assay [1] and over 6.30 in assay [2].

As to `CC(=O)N1[C@H](C)CN(c2nc(-c3c[nH]c4ncc(Cl)cc34)c(F)cc2C(N)=O)C[C@@H]1C` [Compound 72], the pKi in assay [4] was over 6.30; in assay [5], 5.30 to 6.30; in assay [1], 5.30 to 6.30; in assay [2], over 6.30.

Turning to `CC(=O)N1[C@H](C)CN(c2cccc(-c3c[nH]c4ncc(NC(=O)c5ccccc5)cc34)n2)C[C@@H]1C` [Compound 156], the pKi in assay [4] is over 6.30; in assay [5], over 6.30; in assay [1], over 6.30; in assay [2], 5.30 to 6.30.

Regarding `CC(=O)N1[C@H](C)CN(c2cccc(-c3c[nH]c4ncc(NC(=O)c5cccs5)cc34)n2)C[C@@H]1C` [Compound 182], the pKi in assay [4] was over 6.30; in assay [5], over 6.30; in assay [1] it was 5.30 to 6.30; in assay [2], 5.30 to 6.30.
